We go through 40 compounds from US8614223B2, “Pyrimidine hydroxy amide compounds as protein deacetylase inhibitors and methods of use thereof” (Acetylon Pharmaceuticals, Inc., priority 2010, dated 2013).

In general, pIC50 refers to the negative decadic logarithm of the IC50, by convention in mol/L.

pIC50: −log10 of the molar value.

One assay addresses HDAC6 (Homo sapiens (Human), UniProt Q9UBN7). Conditions: read-out: HDAC6 IC50.
The next assay addresses HDAC1 (Homo sapiens (Human), UniProt Q13547). Description: HDAC enzyme assay, HDAC1. Conditions: for HDAC1 fold over HDAC6 IC50 (selectivity for HDAC6): ratio HDAC1/HDAC6; for pIC50: read-out: HDAC1 IC50.
A further assay deals with HDAC2 (Homo sapiens (Human), UniProt Q92769). Description: HDAC enzyme assay, HDAC2. Conditions: for HDAC2 fold over HDAC6 IC50 (selectivity for HDAC6): ratio HDAC2/HDAC6; for pIC50: read-out: HDAC2 IC50.
For another assay, the target named is HDAC3 (Homo sapiens (Human), UniProt O15379). Description: HDAC enzyme assay, HDAC3. To be noted: for HDAC3 fold over HDAC6 IC50 (selectivity for HDAC6): ratio HDAC3/HDAC6; for pIC50: read-out: HDAC3 IC50.
HDAC3, sequence (O15379 whole entry): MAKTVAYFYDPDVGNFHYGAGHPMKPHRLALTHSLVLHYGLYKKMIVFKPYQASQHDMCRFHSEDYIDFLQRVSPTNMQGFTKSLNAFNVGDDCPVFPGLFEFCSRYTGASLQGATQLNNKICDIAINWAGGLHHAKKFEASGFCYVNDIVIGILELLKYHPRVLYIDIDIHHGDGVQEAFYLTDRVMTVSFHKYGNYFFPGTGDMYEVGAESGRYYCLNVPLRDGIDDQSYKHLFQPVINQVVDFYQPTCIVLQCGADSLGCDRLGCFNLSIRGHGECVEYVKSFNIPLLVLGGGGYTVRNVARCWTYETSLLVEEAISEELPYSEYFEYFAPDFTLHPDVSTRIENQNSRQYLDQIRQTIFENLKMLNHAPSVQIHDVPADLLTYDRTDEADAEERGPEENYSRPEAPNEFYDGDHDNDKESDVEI
HDAC3, sequence (Q9Y618 395-489 partner): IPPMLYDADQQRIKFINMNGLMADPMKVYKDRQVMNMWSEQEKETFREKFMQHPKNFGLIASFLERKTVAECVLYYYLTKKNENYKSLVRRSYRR

HDAC2, sequence (Q92769 whole entry): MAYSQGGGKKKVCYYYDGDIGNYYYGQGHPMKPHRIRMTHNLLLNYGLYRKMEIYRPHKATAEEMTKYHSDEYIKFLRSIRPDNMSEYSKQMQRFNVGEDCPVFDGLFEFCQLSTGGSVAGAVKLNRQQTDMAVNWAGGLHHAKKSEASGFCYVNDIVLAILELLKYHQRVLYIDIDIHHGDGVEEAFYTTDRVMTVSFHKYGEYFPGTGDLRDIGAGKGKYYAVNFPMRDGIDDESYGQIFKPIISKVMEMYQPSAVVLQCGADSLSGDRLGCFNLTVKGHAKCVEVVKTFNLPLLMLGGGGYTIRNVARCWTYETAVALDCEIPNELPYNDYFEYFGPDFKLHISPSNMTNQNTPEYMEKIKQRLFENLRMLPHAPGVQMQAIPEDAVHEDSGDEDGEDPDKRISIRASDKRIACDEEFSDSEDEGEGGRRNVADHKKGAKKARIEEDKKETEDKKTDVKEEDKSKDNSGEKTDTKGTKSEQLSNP
HDAC1, sequence (Q13547 whole entry): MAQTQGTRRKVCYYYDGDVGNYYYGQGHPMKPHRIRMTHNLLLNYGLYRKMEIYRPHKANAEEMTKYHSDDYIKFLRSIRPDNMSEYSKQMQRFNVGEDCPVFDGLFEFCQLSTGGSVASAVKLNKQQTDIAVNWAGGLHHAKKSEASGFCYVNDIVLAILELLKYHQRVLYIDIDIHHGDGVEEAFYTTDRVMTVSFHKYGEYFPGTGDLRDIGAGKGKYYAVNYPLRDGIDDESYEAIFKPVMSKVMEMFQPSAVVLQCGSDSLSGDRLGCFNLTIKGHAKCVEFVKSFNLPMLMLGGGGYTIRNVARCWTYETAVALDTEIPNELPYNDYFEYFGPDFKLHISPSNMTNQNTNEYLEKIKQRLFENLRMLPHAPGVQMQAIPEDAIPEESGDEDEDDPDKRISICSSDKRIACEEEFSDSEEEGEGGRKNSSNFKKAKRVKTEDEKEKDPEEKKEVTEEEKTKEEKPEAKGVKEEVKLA
HDAC6, sequence (Q9UBN7 whole entry): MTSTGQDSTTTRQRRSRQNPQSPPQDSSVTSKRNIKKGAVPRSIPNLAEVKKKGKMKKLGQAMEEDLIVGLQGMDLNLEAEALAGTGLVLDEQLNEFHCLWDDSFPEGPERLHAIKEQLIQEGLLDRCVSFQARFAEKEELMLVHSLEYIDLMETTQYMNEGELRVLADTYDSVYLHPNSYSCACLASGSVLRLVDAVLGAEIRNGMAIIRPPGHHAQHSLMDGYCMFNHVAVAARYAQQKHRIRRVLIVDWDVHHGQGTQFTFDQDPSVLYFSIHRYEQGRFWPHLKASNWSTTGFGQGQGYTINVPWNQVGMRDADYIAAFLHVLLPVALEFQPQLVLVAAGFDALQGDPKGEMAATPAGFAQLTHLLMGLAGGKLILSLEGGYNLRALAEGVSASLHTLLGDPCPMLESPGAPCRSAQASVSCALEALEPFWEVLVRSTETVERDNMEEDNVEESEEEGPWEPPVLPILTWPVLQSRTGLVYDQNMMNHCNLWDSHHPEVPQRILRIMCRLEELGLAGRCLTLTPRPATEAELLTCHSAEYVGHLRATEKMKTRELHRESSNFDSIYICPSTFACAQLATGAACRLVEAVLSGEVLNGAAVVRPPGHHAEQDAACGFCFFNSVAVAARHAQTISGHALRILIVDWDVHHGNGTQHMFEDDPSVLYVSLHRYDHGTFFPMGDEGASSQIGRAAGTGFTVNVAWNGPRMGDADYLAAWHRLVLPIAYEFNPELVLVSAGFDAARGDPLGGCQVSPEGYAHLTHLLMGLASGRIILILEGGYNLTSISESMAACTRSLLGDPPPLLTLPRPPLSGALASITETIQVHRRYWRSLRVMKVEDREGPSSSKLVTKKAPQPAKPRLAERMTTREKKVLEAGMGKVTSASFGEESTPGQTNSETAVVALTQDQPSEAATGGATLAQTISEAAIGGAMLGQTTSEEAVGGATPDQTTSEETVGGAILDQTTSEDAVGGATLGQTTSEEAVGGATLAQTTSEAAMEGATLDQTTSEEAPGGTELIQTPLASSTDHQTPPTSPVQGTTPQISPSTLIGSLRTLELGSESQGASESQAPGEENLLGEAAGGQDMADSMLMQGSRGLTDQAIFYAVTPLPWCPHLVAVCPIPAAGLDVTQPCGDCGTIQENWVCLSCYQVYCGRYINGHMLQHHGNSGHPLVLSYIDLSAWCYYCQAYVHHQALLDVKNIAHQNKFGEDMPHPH

As for `Cc1cc(F)cc(Nc2ncc(C(=O)NO)cn2)c1` [Compound 24], the pIC50 at HDAC6 was 8.30; on HDAC1, 6.88; on HDAC2, 6.58; at HDAC3 it was 6.71. Besides, the “HDAC1 fold over HDAC6 IC50 (selectivity for HDAC6)” value at HDAC1 was “(26x)”. Also, the “HDAC2 fold over HDAC6 IC50 (selectivity for HDAC6)” value at HDAC2 is listed as “(50.9x)”. Further, the “HDAC3 fold over HDAC6 IC50 (selectivity for HDAC6)” value on HDAC3 is “(37.6x)”.

Turning to `CC1(Nc2ncc(C(=O)NO)cn2)CCCCC1` [Compound 110], the negative logarithm of the IC50 (pIC50) on HDAC6 was 7.39; on HDAC1 it was 5.85; on HDAC2 it was 5.79; on HDAC3, 5.46. Moreover, at HDAC1, the “HDAC1 fold over HDAC6 IC50 (selectivity for HDAC6)” value is recorded as “(34.5x)”. Besides, the “HDAC2 fold over HDAC6 IC50 (selectivity for HDAC6)” value at HDAC2 is listed as “(39.9x)”. Also, the “HDAC3 fold over HDAC6 IC50 (selectivity for HDAC6)” value at HDAC3 is on record as “(84.7x)”.

With `O=C(NO)c1cnc(Nc2cc(F)cc(C(F)(F)F)c2)nc1` [Compound 26], the pIC50 was 8.30 on HDAC6, 6.80 at HDAC1, 6.46 at HDAC2 and 6.57 on HDAC3. Also, the “HDAC1 fold over HDAC6 IC50 (selectivity for HDAC6)” value at HDAC1 is on record as “(31.4x)”. In addition, on HDAC2, the “HDAC2 fold over HDAC6 IC50 (selectivity for HDAC6)” value is recorded as “(68.3x)”. For the same compound, the “HDAC3 fold over HDAC6 IC50 (selectivity for HDAC6)” value on HDAC3 is reported as “(53.4x)”.

On to `O=C(NO)c1cnc(NC2(c3cc(F)cc(F)c3)CC2)nc1` [Compound 132], for which the pIC50 on HDAC6 was 8.40. Also, at HDAC1, the “HDAC1 fold over HDAC6 IC50 (selectivity for HDAC6)” value was “(24.4x)” and the pIC50 was 7.02. In addition, on HDAC2, the “HDAC2 fold over HDAC6 IC50 (selectivity for HDAC6)” value is “(24.4x)” and the pIC50 is 7.02. Also, on HDAC3, the “HDAC3 fold over HDAC6 IC50 (selectivity for HDAC6)” value is “(80.8x)” and the pIC50 is 6.50.

With `COc1cccc(C2(Nc3ncc(C(=O)NO)cn3)CC2)c1` [Compound 120], the pIC50 on HDAC1 is 7.42; at HDAC2, 7.28; on HDAC3 it was 6.89.

`Cc1cc(C(C)(C)Nc2ncc(C(=O)NO)cn2)ccc1F` [Compound 78]: the pIC50 was 8.40 on HDAC6, 6.22 at HDAC1, 6.17 at HDAC2 and 5.88 at HDAC3. For the same compound, the “HDAC1 fold over HDAC6 IC50 (selectivity for HDAC6)” value on HDAC1 is recorded as “(137.3x)”. Moreover, at HDAC2, the “HDAC2 fold over HDAC6 IC50 (selectivity for HDAC6)” value is given as “(153.6x)”. Further, the “HDAC3 fold over HDAC6 IC50 (selectivity for HDAC6)” value on HDAC3 was “(304.6x)”.

On to `O=C(NO)c1cnc(NCCc2ccccc2-c2ccccc2)nc1` [Compound 59], for which the negative logarithm of the IC50 (pIC50) at HDAC6 was 7.40. Moreover, at HDAC1, the “HDAC1 fold over HDAC6 IC50 (selectivity for HDAC6)” value is on record as “(15.3x)” and the pIC50 is 6.22. At HDAC2, the “HDAC2 fold over HDAC6 IC50 (selectivity for HDAC6)” value is listed as “(20.5x)” and the pIC50 is 6.09. For the same compound, at HDAC3, the “HDAC3 fold over HDAC6 IC50 (selectivity for HDAC6)” value was “(22x)” and the pIC50 is 6.06.

`O=C(NO)c1cnc(NC23CC4CC(CC(C4)C2)C3)nc1` [Compound 58]: the pIC50 was 8.05 on HDAC6, 6.26 at HDAC1, 6.15 on HDAC2 and 5.96 at HDAC3. For the same compound, the “HDAC1 fold over HDAC6 IC50 (selectivity for HDAC6)” value at HDAC1 is “(60.8x)”. The “HDAC2 fold over HDAC6 IC50 (selectivity for HDAC6)” value at HDAC2 is listed as “(77.2x)”. Besides, the “HDAC3 fold over HDAC6 IC50 (selectivity for HDAC6)” value on HDAC3 was “(119.5x)”.

`CC(C)(Nc1ncc(C(=O)NO)cn1)c1cccc(F)c1` [Compound 75]: on HDAC6, the pIC50 is 8.52. Also, on HDAC1, the “HDAC1 fold over HDAC6 IC50 (selectivity for HDAC6)” value was “(374.2x)” and the pIC50 was 5.94. Besides, on HDAC2, the “HDAC2 fold over HDAC6 IC50 (selectivity for HDAC6)” value is given as “(316.3x)” and the negative-log IC50 (pIC50) was 6.02. Also, on HDAC3, the “HDAC3 fold over HDAC6 IC50 (selectivity for HDAC6)” value was “(616.6x)” and the pIC50 was 5.73.

Take `Cc1ccc(Nc2ncc(C(=O)NO)cn2)cc1` [Compound 4]: at HDAC6, the negative logarithm of the IC50 (pIC50) was 8.05. Also, at HDAC1, the “HDAC1 fold over HDAC6 IC50 (selectivity for HDAC6)” value is on record as “(22x)” and the pIC50 was 6.71. Also, on HDAC2, the “HDAC2 fold over HDAC6 IC50 (selectivity for HDAC6)” value is recorded as “(32.8x)” and the pIC50 is 6.54. Besides, at HDAC3, the “HDAC3 fold over HDAC6 IC50 (selectivity for HDAC6)” value was “(32.9x)” and the pIC50 is 6.54.

As for `O=C(NO)c1cnc(NCc2ccc3c(c2)OCO3)nc1` [Compound 46], the pIC50 on HDAC1 is 7.40; on HDAC2, 7.28; on HDAC3 it was 7.24.

As to `Cc1cc(F)ccc1C(C)(C)Nc1ncc(C(=O)NO)cn1` [Compound 72], the negative logarithm of the IC50 (pIC50) on HDAC6 was 7.72. In addition, on HDAC1, the “HDAC1 fold over HDAC6 IC50 (selectivity for HDAC6)” value is given as “(306.9x)” and the pIC50 is 5.24. In addition, on HDAC2, the “HDAC2 fold over HDAC6 IC50 (selectivity for HDAC6)” value is listed as “(427.2x)” and the pIC50 was 5.10. Also, on HDAC3, the “HDAC3 fold over HDAC6 IC50 (selectivity for HDAC6)” value is on record as “(656.2x)” and the negative-log IC50 (pIC50) was 4.91.

Turning to `CC(Nc1ncc(C(=O)NO)cn1)c1ccccc1` (stereo not drawn) [Compound 67], the pIC50 on HDAC6 is 8.70.

On to `O=C(NO)c1cnc(NC2(c3cc(C(F)(F)F)cc(C(F)(F)F)c3)CC2)nc1` [Compound 145], for which the pIC50 on HDAC6 is 8.22. Besides, at HDAC1, the “HDAC1 fold over HDAC6 IC50 (selectivity for HDAC6)” value was “(18.1x)” and the pIC50 was 6.98. In addition, at HDAC2, the “HDAC2 fold over HDAC6 IC50 (selectivity for HDAC6)” value is “(23.5x)” and the pIC50 is 6.87. In addition, on HDAC3, the “HDAC3 fold over HDAC6 IC50 (selectivity for HDAC6)” value is “(66.6x)” and the pIC50 was 6.42.

Turning to `O=C(NO)c1cnc(NCc2ccc(C(F)(F)F)cc2)nc1` [Compound 37], on HDAC6, the pIC50 was 8.30. Besides, on HDAC1, the “HDAC1 fold over HDAC6 IC50 (selectivity for HDAC6)” value was “(17.8x)” and the pIC50 was 7.05. Besides, on HDAC2, the “HDAC2 fold over HDAC6 IC50 (selectivity for HDAC6)” value is on record as “(25.4x)” and the pIC50 was 6.90. For the same compound, on HDAC3, the “HDAC3 fold over HDAC6 IC50 (selectivity for HDAC6)” value is “(29.8x)” and the pIC50 is 6.83.

In the case of `Cc1cccc(C2(Nc3ncc(C(=O)NO)cn3)CC2)c1` [Compound 134], the results for the pIC50 on HDAC1, at HDAC2 and on HDAC3 were 7.33, 7.40 and 7.00, respectively.

Regarding `O=C(NO)c1cnc(NCCc2ccccc2)nc1` [Compound 41], the values for the pIC50 at HDAC6, on HDAC1 and on HDAC3 were 8.40, 6.67 and 6.49, respectively.

As to `O=C(NO)c1cnc(NC2(c3cccc(Cl)c3)CCCC2)nc1` [Compound 153], the pIC50 is 6.28 on HDAC1, 6.31 at HDAC2 and 5.90 at HDAC3.

Turning to `COc1cc(F)ccc1CNc1ncc(C(=O)NO)cn1` [Compound 49], the pIC50 at HDAC1 is 6.66; at HDAC2, 6.47; at HDAC3 it was 6.52.

Regarding `O=C(NO)c1cnc(NCc2ccncc2)nc1` [Compound 69], the negative logarithm of the IC50 (pIC50) at HDAC6 is 8.30; on HDAC1, 6.69; at HDAC3 it was 6.52.

Consider `C[C@@H](Nc1ncc(C(=O)NO)cn1)c1ccccc1` [Compound 66], for which the pIC50 at HDAC6 was 9.00.

Turning to `O=C(NO)c1cnc(NC2(c3ccc(Cl)c(Cl)c3)CC2)nc1` [Compound 141], the pIC50 at HDAC1 was 7.89; on HDAC2 it was 7.77; on HDAC3, 7.27.

On to `O=C(NO)c1cnc(NC2(c3cccs3)CC2)nc1` [Compound 98], for which the pIC50 at HDAC6 was 8.40; at HDAC1, 6.83; on HDAC3 it was 5.37.

With `CC(C)(Nc1ncc(C(=O)NO)cn1)c1ccccc1F` [Compound 71], the results for the negative-log IC50 (pIC50) on HDAC1, on HDAC2 and on HDAC3 were 6.30, 6.04 and 5.90, respectively.

`O=C(NO)c1cnc(NC2(c3cc(Cl)cc(Cl)c3)CC2)nc1` [Compound 146]: the values for the pIC50 on HDAC1, on HDAC2 and on HDAC3 were 7.80, 7.66 and 7.24, respectively.

`O=C(NO)c1cnc(NC2(c3ccc(Cl)cc3)CC2)nc1` [Compound 136]: the results for the pIC50 at HDAC1, on HDAC2 and on HDAC3 were 7.35, 7.40 and 6.97, respectively.

Take `O=C(NO)c1cnc(NC2(c3ccc(F)c(Cl)c3)CC2)nc1` [Compound 131]: the figures for the pIC50 at HDAC1, on HDAC2 and on HDAC3 were 7.77, 7.72 and 7.21, respectively.

Turning to `O=C(NO)c1cnc(NC2(c3cccc(Cl)c3)CC2)nc1` [Compound 94], the pIC50 on HDAC1 is 7.66; on HDAC3, 7.30.

In the case of `C[C@@H](Nc1ncc(C(=O)NO)cn1)c1ccccc1` [Compound 62], the pIC50 at HDAC6 is 8.70.

For the compound `CC(Nc1ncc(C(=O)NO)cn1)c1ccccc1` (stereo not drawn) [Compound 32], the pIC50 at HDAC6 was 8.70.

Take `CN(c1ccc(Cl)c(Cl)c1)c1ncc(C(=O)NO)cn1` [Compound 8]: the pIC50 at HDAC6 was 7.42; at HDAC3 it was 6.66.

Consider `C[C@H](Nc1ncc(C(=O)NO)cn1)c1ccccc1` [Compound 61], for which, on HDAC6, the negative-log IC50 (pIC50) is 7.43.

Take `C[C@H](Nc1ncc(C(=O)NO)cn1)c1ccccc1` [Compound 65]: on HDAC6, the pIC50 is 7.72.

For `O=C(NO)c1cnc(Nc2ccc(Cl)c(Cl)c2)nc1` [Compound 2], the figures for the negative-log IC50 (pIC50) at HDAC6, at HDAC1 and on HDAC3 were 8.30, 6.58 and 6.52, respectively.

`O=C(NO)c1cnc(NC2(c3ccccc3F)CC2)nc1` [Compound 82]: the pIC50 at HDAC1 was 7.80; at HDAC2 it was 7.74; on HDAC3 it was 7.66.

For `O=C(NO)c1cnc(NC2(c3cccc(F)c3)CC2)nc1` [Compound 87], the pIC50 is 7.07 on HDAC1, 6.94 at HDAC2 and 6.63 at HDAC3.

Take `Cc1cc(Cl)ccc1CNc1ncc(C(=O)NO)cn1` [Compound 52]: the pIC50 was 8.52 on HDAC6 and 6.73 on HDAC1.

Turning to `O=C(NO)c1cnc(NC2(c3cccc(C(F)(F)F)c3)CC2)nc1` [Compound 121], the pIC50 was 7.57 on HDAC1, 7.49 on HDAC2 and 7.00 on HDAC3.

`O=C(NO)c1cnc(NCCc2ccc(Cl)cc2)nc1` [Compound 44]: the results for the pIC50 on HDAC6, at HDAC1 and at HDAC3 were 7.96, 6.76 and 6.51, respectively.

Take `Cc1ccccc1C1(Nc2ncc(C(=O)NO)cn2)CC1` [Compound 127]: the pIC50 on HDAC1 is 7.30; on HDAC2 it was 7.24; on HDAC3, 6.92.
